The text below walks through data of patent US10149835B2, “Isoxazole derivatives as FXR agonists and methods of use thereof” (Enanta Pharmaceuticals, Inc., priority 2016, dated 2018).

Usually EC50 stands for the concentration giving half of the maximal effect.

The test concerns the target human FXR (NR1H4) (Homo sapiens (Human), UniProt Q96RI1). In words: Human FXR (NR1H4) Assay (Gal4 promoter driven luciferase reporter, Indigo Bioscience kit). To be noted: CHO reporter cells expressing human NR1H4; for Efficacy (%): normalized to CDCA set as 100%; for EC50: 22 hours incubation, potency ranges. The format is cell-based. As for the experimental part: To a solution of compound (1) (211 mg, 0.37 mmol) in toluene (3 ml) was added dropwise triethylamine (0.10 ml, 0.74 mmol) and diphenyl phosphorazidate (0.087 ml, 0.40 mmol). The mixture was stirred at 23° C. for 1 h, at 85° C. for 3.5 h, and cooled to 23° C. A solution of N,N-dimethylsulfamide (68 mg, 0.55 mmol) in THF (0.5 mL) and DBU (83 μl, 0.55 mmol) was added. The mixture was stirred at 23° C. for 16 h, quenched with 1 M HCl, and extracted with EtOAc (2×). The combined organic layers were washed with brine and concentrated in vacuo. The residue was purified by chromatography on silica gel column eluting with hexane/acetone (100/0 to 70/30, 10 min) to provide Example 7. Assays Human FXR (NR1H4) Assay
Determination of a ligand mediated Gal4 promoter driven transactivation to quantify ligand binding mediated activation of FXR. FXR Reporter Assay kit purchased from Indigo Bioscience (Catalogue number: IB00601) to determine the potency and efficacy of compound developed by Enanta that can induce FXR activation. The principle application of this reporter assay system is to quantify functional activity of human FXR. The assay utilizes non-human mammalian cells, CHO (Chinese hamster ovary) cells engineered to express human NR1H4 protein (referred to as FXR). Reporter cells also incorporate the cDNA encoding beetle luciferase which catalyzes the substrates and yields photon emission. Luminescence intensity of the reaction is quantified using a plate-reading luminometer, Envision. Reporter Cells include the luciferase reporter gene functionally linked to an FXR responsive promoter. Thus, quantifying changes in luciferase expression in the treated reporter cells provides a sensitive surrogate measure of the changes in FXR activity. […] The assay is according to the manufacturer's instructions. In brief, the assay was performed in white, 96 well plates using final volume of 100 μl containing cells with different doses of compounds. Retrieve Reporter Cells from −80° C. storage. Perform a rapid thaw of the frozen cells by transferring a 10 ml volume of 37° C. cell recovery medium into the tube of frozen cells. Recap the tube of Reporter Cells and immediately place it in a 37° C. water bath for 5-10 minutes. Retrieve the tube of Reporter Cell Suspension from the water bath. Sanitize the outside surface of the tube with a 70% alcohol swab, and then transfer it into the cell culture hood. Dispense 90 μl of cell suspension into each well of the 96-well Assay Plate. Transfer the plate into 37° C. incubator, allowing the cells adherent to the bottom of the well. Dilute compounds in Dilution Plate (DP), and administrate to cells at Assay Plate (AP). DMSO content of the samples was kept at 0.2%. Cells were incubated for additional 22 hours before luciferase activities were measured. Thirty minutes before intending to quantify FXR activity, remove Detection Substrate and Detection Buffer from the refrigerator and place them in a low-light area so that they may equilibrate to room temperature. Remove the plate's lid and discard all media contents by ejecting it into an appropriate waste container. Gently tap the inverted plate onto a clean absorbent paper towel to remove residual droplets. Cells will remain tightly adhered to well bottoms. Add 100 μl of luciferase detection reagent to each well of the assay plate. Allow the assay plate to rest at room temperature for at least 5 minutes following the addition of LDR. Set the instrument (Envision) to perform a single 5 second “plate shake” prior to reading the first assay well. Read time may be 0.5 second (500 mSec) per well.
(A reporter such as luciferase makes a cellular process visible.)

Sequence of human FXR (NR1H4) (Q96RI1 whole entry, the tested form may be a part): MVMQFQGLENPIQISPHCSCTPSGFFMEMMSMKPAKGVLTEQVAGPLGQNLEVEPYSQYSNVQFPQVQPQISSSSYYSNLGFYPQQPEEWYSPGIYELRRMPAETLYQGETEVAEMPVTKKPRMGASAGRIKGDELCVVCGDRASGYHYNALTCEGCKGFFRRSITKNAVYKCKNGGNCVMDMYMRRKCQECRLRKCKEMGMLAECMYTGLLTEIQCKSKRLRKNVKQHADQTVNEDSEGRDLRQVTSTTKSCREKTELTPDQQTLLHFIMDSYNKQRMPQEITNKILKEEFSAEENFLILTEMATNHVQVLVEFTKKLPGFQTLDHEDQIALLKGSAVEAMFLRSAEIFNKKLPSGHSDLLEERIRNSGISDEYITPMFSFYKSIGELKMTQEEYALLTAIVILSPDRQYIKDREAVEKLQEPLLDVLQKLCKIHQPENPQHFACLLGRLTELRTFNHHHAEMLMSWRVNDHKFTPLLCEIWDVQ

Regarding `CN(C)S(=O)(=O)NC(=O)c1ccc2nc(N3C4CC[C@H]3C[C@H](OCc3c(-c5c(Cl)cccc5Cl)noc3C3CC3)C4)sc2c1` [Example 1], the “Efficacy (%)” value was 204%.

Take `O=C(NS(=O)(=O)C1CC1)c1ccc2nc(N3C4CC[C@H]3CC(OCc3c(-c5c(Cl)cccc5Cl)noc3C3CC3)C4)sc2c1` (some centres unmarked) [Example 2]: the EC50 was < 100 nM and the “Efficacy (%)” value is 204%.

For the molecule `CC(C)(C)c1ccc(S(=O)(=O)NC(=O)c2ccc3nc(N4C5CC[C@H]4CC(OCc4c(-c6c(Cl)cccc6Cl)noc4C4CC4)C5)sc3c2)cc1` (some centres unmarked) [Example 3], the EC50 was < 100 nM and the “Efficacy (%)” value is 226%.

For `CN(C)S(=O)(=O)NC(=O)c1ccc(N2C3CC[C@H]2CC(OCc2c(-c4c(Cl)cccc4Cl)noc2C2CC2)C3)c(F)c1` (some centres unmarked) [Example 4], the EC50 was < 100 nM and the “Efficacy (%)” value was 174%.

For `CC(C)(C)c1ccc(S(=O)(=O)NC(=O)c2ccc(N3C4CC[C@H]3CC(OCc3c(-c5c(Cl)cccc5Cl)noc3C3CC3)C4)c(F)c2)cc1` (some centres unmarked) [Example 5], the EC50 is < 100 nM and the “Efficacy (%)” value turned out to be 168%.

Regarding `O=C(NS(=O)(=O)C1CC1)c1ccc(N2C3CC[C@H]2CC(OCc2c(-c4c(Cl)cccc4Cl)noc2C2CC2)C3)c(F)c1` (some centres unmarked) [Example 6], the EC50 was < 100 nM and the “Efficacy (%)” value is 170%.
